The values below come from BindingDB's records for doi:10.3109/14756366.2011.584535 (Balikesir University, 2012).

One test concerns the target Carbonic anhydrase 1 (Homo sapiens, UniProt P00915). The experiment in a line: CA Enzyme Assay. As for the experimental part: (§1) CA activity was measured by the Maren method which is based on determination of the time required for the pH to decrease from 10.0 to 7.4 due to CO2 hydration [Maren et al., J. Pharm. Exp. Ther., 130:2629-2634].
For a further test, the target named is Carbonic anhydrase 2 (Homo sapiens, UniProt P00918). The experiment in a line: CA Enzyme Assay. As for the experimental part:
as §1

Chain of Carbonic anhydrase 1 (P00915 whole entry): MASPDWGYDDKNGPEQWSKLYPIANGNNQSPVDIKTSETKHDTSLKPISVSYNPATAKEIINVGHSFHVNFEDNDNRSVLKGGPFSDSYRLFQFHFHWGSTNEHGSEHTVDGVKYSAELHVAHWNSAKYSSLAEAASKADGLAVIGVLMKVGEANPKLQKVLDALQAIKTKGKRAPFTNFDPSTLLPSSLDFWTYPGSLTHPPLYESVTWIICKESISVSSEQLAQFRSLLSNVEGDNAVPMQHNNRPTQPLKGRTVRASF

As to `CC/C(=C(/CC)c1ccc(O)cc1)c1ccc(O)cc1`, the results for the IC50 at Carbonic anhydrase 1 and at Carbonic anhydrase 2 were 94 µM and 89 µM, respectively.

Regarding `CC12C=CC3=C4CCC(=O)C=C4CCC3C1CCC2O` (stereo unspecified) [Trenbolone (2)], the values for the IC50 against Carbonic anhydrase 1 and against Carbonic anhydrase 2 were 55 µM and 159 µM, respectively.

With `CC1CCCC(O)CCCCCc2cc(O)cc(O)c2C(=O)O1` (stereo unspecified) [Zeranol (4)], the IC50 on Carbonic anhydrase 1 was found to be 898 µM; on Carbonic anhydrase 2, 101 µM.
